We go through twelve compounds from patent US7405240B2, “Substituted cyclopentanes or cyclopentanones as therapeutic agents” (Allergan, Inc., priority 2006, dated 2008).

The target of experiment [1] is T1, hEP4 (Homo sapiens, UniProt P35408). The experiment is described as follows: Radioligand binding, EP4 receptor. Set-up: expressed in transfected cells; host or cells: HEK-293. To be noted: [3H]PGE2, HEK-293 cells expressing EP4. The method, then:
(§1) HEK-293 cells stably expressing the human or feline FP receptor, or EP1, EP2, or EP4 receptors were washed with TME buffer, scraped from the bottom of the flasks, and homogenized for 30 sec using a Brinkman PT 10/35 polytron. TME buffer was added to achieve a final 40 ml volume in the centrifuge tubes (the composition of TME is 100 mM TRIS base, 20 mM MgCl2, […]; 10N HCl is added to achieve a pH of 7.4).
(§2) The cell homogenate was centrifuged at 19000 r.p.m. for 20 min at 4° C. using a Beckman Ti-60 rotor. The resultant pellet was resuspended in TME buffer to give a final 1 mg/ml protein concentration, as determined by Biorad assay. Radioligand binding competition assays vs. [3H-] 17-phenyl PGF2, (5 nM) were performed in a 100 μl volume for 60 min. Binding reactions were started by adding plasma membrane fraction. The reaction was terminated by the addition of 4 ml ice-cold TRIS-HCl buffer and rapid filtration through glass fiber GF/B filters using a Brandel cell harvester. The filters were washed 3 times with ice-cold buffer and oven dried for one hour.
(§3) [^3H-] PGE2 (specific activity 180 Ci mmol) was used as the radioligand for EP receptors. [^3H] 17-phenyl PGF2, was employed for FP receptor binding studies. Binding studies employing EP1, EP2, EP4 and FP receptors were performed in duplicate in at least three separate experiments. A […] assay volume was used. Incubations were for 60 min at 25° C. and were terminated by the addition of 4 ml of ice-cold 50 mM TRIS-HCl, followed by rapid filtration through Whatman GF/B filters and three additional 4 ml washes in a cell harvester (Brandel). Competition studies were performed using a final concentration of 5 nM [^3H]-PGE2, or 5 nM [^3H] 17-phenyl PGF2, and non-specific binding determined with 10^−5M of unlabeled PGE2, or 17-phenyl PGF2α, according to receptor subtype studied.

In experiment [2] the target is T2, hEP2 (Homo sapiens, UniProt P43116). The experiment is described as follows: cAMP assay, hEP2. The experiment is classed as cell-based. For orientation: Cyclic AMP is a second messenger, typically raised through Gs and lowered through Gi signalling.
T2 sequence (P43116 whole entry): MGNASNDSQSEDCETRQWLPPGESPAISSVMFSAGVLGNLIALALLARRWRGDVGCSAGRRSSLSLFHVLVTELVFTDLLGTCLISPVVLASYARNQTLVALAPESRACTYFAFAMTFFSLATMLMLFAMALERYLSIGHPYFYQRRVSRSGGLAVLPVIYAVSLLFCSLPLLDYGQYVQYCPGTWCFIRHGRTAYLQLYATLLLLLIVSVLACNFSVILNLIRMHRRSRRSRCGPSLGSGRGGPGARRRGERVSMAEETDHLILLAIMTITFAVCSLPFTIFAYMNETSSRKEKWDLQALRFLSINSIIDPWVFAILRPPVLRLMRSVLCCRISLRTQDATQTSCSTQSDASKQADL
Experiment [3] concerns the target T2, hEP2. The experiment is described as follows: Competition binding, [3H]PGE2, human EP2 receptors. Also on record: expressed in transfected cells; host or cells: HEK 293. The note with it: [3H]PGE2, HEK 293 cells stably expressing human EP2; read-out: hEP2 Ki. As for the experimental part:
Competition binding experiments were performed in a medium containing Hank's balanced salt solution, Hepes 20 mM, pH 7.3, membranes (˜60 μg protein) or 2×10^5 cells from HEK 293 cells stably expressing human EP2 receptors, [^3H]PGE2 (10 nM) and various concentrations of test compounds in a total volume of 300 μl. Reaction mixtures were incubated at 23° C. for 60 min, and were filtered over Whatman GF/B filters under vacuum. Filters were washed three times with 5 ml ice-cold buffer containing 50 mM Tris/HCl (pH 7.3). Non-specific binding was estimated in the presence of excess unlabeled PGE2 (10 μM). Binding data fitted to the binding model for a single class of binding sites, using nonlinear regression analysis. IC50 values thus obtained were converted to Ki using the equation of Ki=(IC50/(1+[L]/KD) where [L] represents PGE2 concentration (10 nM) and KD the dissociation constant for [^3H]PGE2 at human EP2 receptors (40 nM).
as §1, §2, §3

Experiment [4] concerns the target T1, hEP4. The experiment is described as follows: FLIPR calcium signal, hEP4. The experiment is classed as cell-based. Set-up: expressed in transfected cells; host or cells: HEK-293(EBNA). The note with it: HEK-293(EBNA) cells expressing hEP4/Gqs5. As for the experimental part:
(§4) Methods for FLIPR™ Studies
(§5) HEK-293(EBNA) cells, stably expressing one type or subtype of recombinant human prostaglandin receptors (prostaglandin receptors expressed: hDP/Gqs5; hEP1; hEP2/Gqs5; hEP3A/Gqi5; hEP4/Gqs5; hFP; hIP; hTP), were cultured in 100 mm culture dishes in high-glucose DMEM medium containing 10% fetal bovine serum, 2 mM 1-glutamine, 250 μg/ml geneticin (G418) and 200 μg/ml hygromycin B as selection markers, and 100 units/ml penicillin G, 100 μg/ml streptomycin and 0.25 μg/ml amphotericin B.
(§6) Cells were seeded at a density of 5×10^4 cells per well in Biocoat® Poly-D-lysine-coated black-wall, clear-bottom 96-well plates (Becton-Dickinson) and allowed to attach overnight in an incubator at 37° C. Cells were then washed two times with HBSS-HEPES buffer (Hanks Balanced Salt Solution without bicarbonate and phenol red, 20 mM HEPES, pH 7.4) using a Denley Cellwash plate washer (Labsystems). After 45 minutes of dye-loading in the dark, using the calcium-sensitive dye Fluo-4 AM at a final concentration of 2 μM, plates were washed four times with HBSS-HEPES buffer to remove excess dye leaving 100 μl in each well. Plates were re-equilibrated to 37° C. for a few minutes.
(§7) Cells were excited with an Argon laser at 488 nm, and emission was measured through a 510-570 nm bandwidth emission filter (FLIPR™, Molecular Devices, Sunnyvale, Calif.). Drug solution was added in a 50 μl volume to each well to give the desired final concentration. The peak increase in fluorescence intensity was recorded for each well. On each plate, four wells each served as negative (HBSS-HEPES buffer) and positive controls (standard agonists: BW245C (hDP); PGE2 (hEP1; hEP2/Gqs5; hEP3A/Gqi5; hEP4/Gqs5); PGF2α (hFP); carbacyclin (hIP); U-46619 (hTP), depending on receptor). The peak fluorescence change in each drug-containing well was then expressed relative to the controls.
(§8) Compounds were tested in a high-throughput (HTS) or concentration-response (CoRe) format. In the HTS format, forty-four compounds per plate were examined in duplicates at a concentration of 10^−5 M. To generate concentration-response curves, four compounds per plate were tested in duplicates in a concentration range between 10^−5 and 10^−11 M. The duplicate values were averaged. In either, HTS or CoRe format each compound was tested on at least 3 separate plates using cells from different passages to give an n≧3.

For experiment [5], the target named is T2, hEP2. The experiment is described as follows: FLIPR calcium signal, hEP2. The experiment is classed as cell-based. Also on record: expressed in transfected cells; host or cells: HEK-293(EBNA). To be noted: HEK-293(EBNA) cells expressing hEP2/Gqs5. As for the experimental part: as §4, §5, §6, §7, §8

T1 sequence (P35408 whole entry): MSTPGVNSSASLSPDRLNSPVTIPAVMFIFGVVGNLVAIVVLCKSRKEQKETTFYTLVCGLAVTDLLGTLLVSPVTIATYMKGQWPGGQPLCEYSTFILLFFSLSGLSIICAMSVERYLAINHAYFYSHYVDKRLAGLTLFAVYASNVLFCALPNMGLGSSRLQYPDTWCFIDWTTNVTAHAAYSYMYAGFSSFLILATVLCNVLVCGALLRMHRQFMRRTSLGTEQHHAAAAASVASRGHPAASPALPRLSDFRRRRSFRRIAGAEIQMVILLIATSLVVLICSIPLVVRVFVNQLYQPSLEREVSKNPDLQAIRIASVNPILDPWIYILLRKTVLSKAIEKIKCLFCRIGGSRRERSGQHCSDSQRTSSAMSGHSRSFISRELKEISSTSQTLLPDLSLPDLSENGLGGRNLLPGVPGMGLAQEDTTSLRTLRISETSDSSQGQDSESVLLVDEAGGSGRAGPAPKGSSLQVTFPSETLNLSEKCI

As for `Cc1cccc(OC[C@@H]2[C@@H](C/C=C\CCCC(=O)O)[C@H](Cl)C[C@H]2O)c1` [Example 25, (Z)-7-((1R,2S,3R,5R)-5-Chloro-3-hydroxy-2-m-tolyloxymethyl-cyclopentyl)-hept-5-enoic acid], the results for the Ki in experiment [1] and in experiment [3] were 1840 nM and 155 nM, respectively. Also, the EC50 was 9 nM in experiment [2], 13000 nM in experiment [4] and 112 nM in experiment [5].
The like results for `CC(C)c1cccc(OC[C@@H]2[C@@H](C/C=C\CCCC(=O)O)[C@H](Cl)C[C@H]2O)c1` [Example 26, (Z)-7-[(1R,2S,3R,5R)-5-Chloro-3-hydroxy-2-(3-isopropyl-phenoxymethyl)-cyclopentyl]-hept-5-enoic acid] were, in that order, 967 nM, 151 nM, 7 nM, 6500 nM and 41 nM.
The like results for `CC(C)(C)c1cccc(OC[C@@H]2[C@@H](C/C=C\CCCC(=O)O)[C@H](Cl)C[C@H]2O)c1` [Example 27, (Z)-7-[(1R,2S,3R,5R)-2-(3-tert-Butyl-phenoxymethyl)-5-chloro-3-hydroxy-cyclopentyl]-hept-5-enoic acid] were, in that order, 908 nM, 497 nM, 54 nM, 16000 nM and 189 nM.
The like results for `COc1cccc(OC[C@@H]2[C@@H](C/C=C\CCCC(=O)O)[C@H](Cl)C[C@H]2O)c1` [Example 28, (Z)-7-[(1R,2S,3R,5R)-5-Chloro-3-hydroxy-2-(3-methoxy-phenoxymethyl)-cyclopentyl]-hept-5-enoic acid] were, in that order, 1680 nM, 274 nM, 20 nM, 3720 nM and 245 nM.
As for `O=C(O)CCC/C=C\C[C@@H]1[C@@H](COc2cccc(OC(=O)c3ccccc3)c2)[C@H](O)C[C@H]1Cl` [Example 29, 3-[(1S,2R,3R,5R)-2-((Z)-6-carboxy-hex-2-enyl)-3-chloro-5-hydroxy-cyclopentylmethoxy]-phenyl benzoate], the Ki in experiment [1] is 2380 nM; in experiment [3] it was 568 nM. Besides, the EC50 in experiment [2] was 139 nM; in experiment [4] it was 7680 nM; in experiment [5], 1580 nM.
The like results for `O=C(O)CCC/C=C\C[C@@H]1[C@@H](COc2cccc(O)c2)[C@H](O)C[C@H]1Cl` [Example 30, (Z)-7-[(1R,2S,3R,5R)-5-Chloro-3-hydroxy-2-(3-hydroxy-phenoxymethyl)-cyclopentyl]-hept-5-enoic acid] were, in that order, 5060 nM, 603 nM, 24 nM, 1170 nM and 111 nM.
As for `Cc1cccc(OC[C@@H]2[C@@H](C/C=C\CCCC(=O)O)[C@H](Cl)C[C@H]2O)c1C` [Example 32, (Z)-7-[(1R,2S,3R,5R)-5-Chloro-2-(2,3-dimethyl-phenoxymethyl)-3-hydroxy-cyclopentyl]-hept-5-enoic acid], the Ki worked out at 1320 nM in experiment [1] and 122 nM in experiment [3]. Besides, the EC50 in experiment [2] was 3 nM; in experiment [4], > 10000 nM; in experiment [5] it was 61 nM.
As to `Cc1ccc(C)c(OC[C@@H]2[C@@H](C/C=C\CCCC(=O)O)[C@H](Cl)C[C@H]2O)c1` [Example 34, (Z)-7-[(1R,2S,3R,5R)-5-Chloro-2-(2,5-dimethyl-phenoxymethyl)-3-hydroxy-cyclopentyl]-hept-5-enoic acid], the Ki in experiment [1] was found to be 1100 nM; in experiment [3] it was 172 nM. In addition, the EC50 in experiment [2] was 2.4 nM; in experiment [4] it was > 10000 nM; in experiment [5], 51 nM.
The like results for `Cc1cccc(C)c1OC[C@@H]1[C@@H](C/C=C\CCCC(=O)O)[C@H](Cl)C[C@H]1O` [Example 35, (Z)-7-[(1R,2S,3R,5R)-5-Chloro-2-(2,6-dimethyl-phenoxymethyl)-3-hydroxy-cyclopentyl]-hept-5-enoic acid] were, in that order, > 10000 nM, 4320 nM, 3350 nM, > 10000 nM and 5580 nM.
Regarding `Cc1ccc(OC[C@@H]2[C@@H](C/C=C\CCCC(=O)O)[C@H](Cl)C[C@H]2O)cc1C` [Example 37, (Z)-7-[(1R,2S,3R,5R)-5-Chloro-2-(3,4-dimethyl-phenoxymethyl)-3-hydroxy-cyclopentyl]-hept-5-enoic acid], the Ki in experiment [1] came to 1100 nM; in experiment [3], 50 nM. For the same compound, the EC50 in experiment [2] is 27 nM; in experiment [4] it was > 10000 nM; in experiment [5] it was 618 nM.
Consider `Cc1cc(OC[C@@H]2[C@@H](C/C=C\CCCC(=O)O)[C@H](Cl)C[C@H]2O)cc(C)c1C` [Example 38, (Z)-7-[(1R,2S,3R,5R)-5-Chloro-3-hydroxy-2-(3,4,5-trimethyl-phenoxymethyl)-cyclopentyl]-hept-5-enoic acid], for which the Ki in experiment [1] amounted to 606 nM; in experiment [3], 25 nM. In addition, the EC50 in experiment [2] is 1.5 nM; in experiment [4], > 10000 nM; in experiment [5] it was 2.3 nM.
The like results for `Cc1cc(OC[C@@H]2[C@@H](C/C=C\CCCC(=O)O)[C@H](Cl)C[C@H]2O)cc(C)c1Cl` [Example 39, (Z)-7-[(1R,2S,3R,5R)-5-Chloro-2-(4-chloro-3,5-dimethyl-phenoxymethyl)-3-hydroxy-cyclopentyl]-hept-5-enoic acid] were, in that order, 281 nM, 11 nM, 0.7 nM, > 10000 nM and 10 nM.

As a reminder, the Ki is a measure of affinity in units of concentration, obtained from inhibition or displacement. The term EC50 denotes the midpoint of the concentration-response curve.
